Reference: ChEMBL document CHEMBL5241118, “4-Aminopyrazolopyrimidine scaffold and its deformation in the design of tyrosine and serine/threonine kinase inhibitors in medicinal chemistry” (RSC Med Chem, 2022)
Each block holds one compound with its values, some of them ahead of it.

Tests used:
MDA-MB-231 [1] = experiment: Antitumor activity against human MDA-MB-231 cells xenografted in athymic nude mouse assessed as the inhibition of tumor growth at 25 mg/kg, ip administered twice daily for 14 days relative to control; type: functional; conditions: MDA-MB-231, 336 h, time 14 day, read-out: TGI
MDA-MB-231 [2] = experiment: Antitumor activity against human MDA-MB-231 cells xenografted in athymic nude mouse assessed as the inhibition of tumor growth at 65 mg/kg, ip measured at 24 hrs post-dose relative to control; conditions: MDA-MB-231, 24 h, read-out: TGI
[3] = target: Tyrosine-protein kinase Lck (Homo sapiens, UniProt P06239); experiment: Inhibition of His-tagged LCK (62 to 509 residues) (unknown origin) expressed in Sf9 insect cells at 10 uM using poly (Glu, Tyr) 4:1 as substrate incubated for 1 hr by spectrometric analysis
Tyrosine-protein kinase Lck, sequence (P06239 whole entry, the tested form may be a part): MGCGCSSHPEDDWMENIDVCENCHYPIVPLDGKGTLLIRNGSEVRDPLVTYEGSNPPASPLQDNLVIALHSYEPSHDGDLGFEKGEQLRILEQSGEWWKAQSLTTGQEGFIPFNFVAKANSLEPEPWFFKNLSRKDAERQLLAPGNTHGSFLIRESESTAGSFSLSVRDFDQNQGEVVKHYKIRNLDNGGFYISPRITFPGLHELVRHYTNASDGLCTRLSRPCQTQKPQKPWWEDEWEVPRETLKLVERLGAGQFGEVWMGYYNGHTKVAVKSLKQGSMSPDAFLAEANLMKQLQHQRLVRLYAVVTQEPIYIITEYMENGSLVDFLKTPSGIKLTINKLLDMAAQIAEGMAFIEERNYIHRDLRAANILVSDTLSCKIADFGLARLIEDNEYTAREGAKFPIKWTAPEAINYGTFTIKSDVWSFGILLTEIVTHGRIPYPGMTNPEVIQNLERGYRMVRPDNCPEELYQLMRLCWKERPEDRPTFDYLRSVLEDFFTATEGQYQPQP

[4] = target: Tyrosine-protein kinase Lyn (Homo sapiens, UniProt P07948); experiment: Inhibition of LYN (unknown origin)
Tyrosine-protein kinase Lyn, sequence (P07948 whole entry): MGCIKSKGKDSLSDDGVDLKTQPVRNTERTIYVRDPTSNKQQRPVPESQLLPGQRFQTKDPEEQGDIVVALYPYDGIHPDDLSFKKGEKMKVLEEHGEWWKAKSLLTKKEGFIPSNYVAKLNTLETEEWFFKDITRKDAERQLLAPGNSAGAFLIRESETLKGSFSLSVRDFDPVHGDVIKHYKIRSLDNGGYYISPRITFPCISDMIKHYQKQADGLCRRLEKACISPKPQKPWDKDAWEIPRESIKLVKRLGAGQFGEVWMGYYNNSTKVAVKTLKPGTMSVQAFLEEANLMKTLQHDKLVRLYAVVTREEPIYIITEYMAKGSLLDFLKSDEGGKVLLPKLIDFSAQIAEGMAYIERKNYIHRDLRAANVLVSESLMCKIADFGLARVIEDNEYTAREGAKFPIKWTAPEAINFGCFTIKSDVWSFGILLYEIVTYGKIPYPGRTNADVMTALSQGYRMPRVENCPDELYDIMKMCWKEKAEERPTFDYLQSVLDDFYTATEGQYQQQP

[5] = target: Proto-oncogene tyrosine-protein kinase Src (Homo sapiens, UniProt P12931); experiment: Inhibition of Src kinase (unknown origin) phosphorylation at Tyr416/419 residues incubated for 24 hrs by Western blot analysis
Proto-oncogene tyrosine-protein kinase Src, sequence (P12931 2-536 limits assumed): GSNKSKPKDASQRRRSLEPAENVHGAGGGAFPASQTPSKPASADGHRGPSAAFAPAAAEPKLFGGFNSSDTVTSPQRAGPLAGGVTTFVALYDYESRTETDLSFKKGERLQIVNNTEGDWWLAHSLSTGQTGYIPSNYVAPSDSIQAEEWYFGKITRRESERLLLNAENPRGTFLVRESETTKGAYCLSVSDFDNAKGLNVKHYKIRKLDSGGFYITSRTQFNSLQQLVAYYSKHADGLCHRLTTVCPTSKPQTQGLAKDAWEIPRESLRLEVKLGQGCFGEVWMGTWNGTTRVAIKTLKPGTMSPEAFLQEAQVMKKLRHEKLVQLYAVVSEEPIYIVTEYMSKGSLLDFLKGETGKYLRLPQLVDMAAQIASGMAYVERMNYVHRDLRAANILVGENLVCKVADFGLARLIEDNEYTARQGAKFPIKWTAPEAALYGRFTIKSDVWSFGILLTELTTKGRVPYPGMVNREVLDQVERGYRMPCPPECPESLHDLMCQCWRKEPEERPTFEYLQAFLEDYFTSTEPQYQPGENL

[6] = target: Phosphatidylinositol 4,5-bisphosphate 3-kinase catalytic subunit gamma isoform (Homo sapiens, UniProt P48736); experiment: Binding affinity to PI3Kgamma (unknown origin) assessed as dissociation constant
Phosphatidylinositol 4,5-bisphosphate 3-kinase catalytic subunit gamma isoform, sequence (P48736 whole entry, canonical isoform): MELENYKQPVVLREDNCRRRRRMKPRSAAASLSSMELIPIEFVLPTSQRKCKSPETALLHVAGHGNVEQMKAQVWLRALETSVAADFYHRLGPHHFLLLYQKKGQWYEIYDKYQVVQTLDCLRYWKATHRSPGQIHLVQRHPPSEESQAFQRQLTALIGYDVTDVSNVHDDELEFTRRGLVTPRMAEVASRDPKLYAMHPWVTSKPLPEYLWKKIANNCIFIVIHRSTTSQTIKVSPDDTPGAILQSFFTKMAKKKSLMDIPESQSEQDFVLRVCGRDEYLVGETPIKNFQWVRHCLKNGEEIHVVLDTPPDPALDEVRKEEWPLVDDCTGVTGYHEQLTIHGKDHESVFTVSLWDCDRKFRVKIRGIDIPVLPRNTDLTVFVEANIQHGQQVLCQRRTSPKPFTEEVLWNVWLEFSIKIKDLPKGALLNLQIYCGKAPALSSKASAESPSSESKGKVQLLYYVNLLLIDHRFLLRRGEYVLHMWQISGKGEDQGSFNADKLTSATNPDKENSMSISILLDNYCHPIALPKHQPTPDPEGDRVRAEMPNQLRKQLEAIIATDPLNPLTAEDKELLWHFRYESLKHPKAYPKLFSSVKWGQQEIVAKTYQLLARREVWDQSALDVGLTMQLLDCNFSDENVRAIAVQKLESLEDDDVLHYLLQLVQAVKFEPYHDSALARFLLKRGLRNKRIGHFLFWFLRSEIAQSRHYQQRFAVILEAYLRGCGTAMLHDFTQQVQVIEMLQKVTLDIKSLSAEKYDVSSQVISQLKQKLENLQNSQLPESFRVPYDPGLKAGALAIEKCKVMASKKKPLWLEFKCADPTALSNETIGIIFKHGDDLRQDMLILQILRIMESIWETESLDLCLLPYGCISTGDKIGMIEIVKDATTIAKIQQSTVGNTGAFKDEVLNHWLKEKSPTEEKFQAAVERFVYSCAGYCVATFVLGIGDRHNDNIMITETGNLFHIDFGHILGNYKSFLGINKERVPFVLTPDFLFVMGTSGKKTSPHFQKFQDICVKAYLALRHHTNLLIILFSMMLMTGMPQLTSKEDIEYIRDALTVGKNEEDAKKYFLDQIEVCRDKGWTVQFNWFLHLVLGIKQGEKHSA

[7] = target: Phosphatidylinositol 4,5-bisphosphate 3-kinase catalytic subunit beta isoform (Homo sapiens, UniProt P42338); experiment: Binding affinity to PI3Kbeta (unknown origin) assessed as dissociation constant
Phosphatidylinositol 4,5-bisphosphate 3-kinase catalytic subunit beta isoform, sequence (P42338 whole entry, canonical isoform): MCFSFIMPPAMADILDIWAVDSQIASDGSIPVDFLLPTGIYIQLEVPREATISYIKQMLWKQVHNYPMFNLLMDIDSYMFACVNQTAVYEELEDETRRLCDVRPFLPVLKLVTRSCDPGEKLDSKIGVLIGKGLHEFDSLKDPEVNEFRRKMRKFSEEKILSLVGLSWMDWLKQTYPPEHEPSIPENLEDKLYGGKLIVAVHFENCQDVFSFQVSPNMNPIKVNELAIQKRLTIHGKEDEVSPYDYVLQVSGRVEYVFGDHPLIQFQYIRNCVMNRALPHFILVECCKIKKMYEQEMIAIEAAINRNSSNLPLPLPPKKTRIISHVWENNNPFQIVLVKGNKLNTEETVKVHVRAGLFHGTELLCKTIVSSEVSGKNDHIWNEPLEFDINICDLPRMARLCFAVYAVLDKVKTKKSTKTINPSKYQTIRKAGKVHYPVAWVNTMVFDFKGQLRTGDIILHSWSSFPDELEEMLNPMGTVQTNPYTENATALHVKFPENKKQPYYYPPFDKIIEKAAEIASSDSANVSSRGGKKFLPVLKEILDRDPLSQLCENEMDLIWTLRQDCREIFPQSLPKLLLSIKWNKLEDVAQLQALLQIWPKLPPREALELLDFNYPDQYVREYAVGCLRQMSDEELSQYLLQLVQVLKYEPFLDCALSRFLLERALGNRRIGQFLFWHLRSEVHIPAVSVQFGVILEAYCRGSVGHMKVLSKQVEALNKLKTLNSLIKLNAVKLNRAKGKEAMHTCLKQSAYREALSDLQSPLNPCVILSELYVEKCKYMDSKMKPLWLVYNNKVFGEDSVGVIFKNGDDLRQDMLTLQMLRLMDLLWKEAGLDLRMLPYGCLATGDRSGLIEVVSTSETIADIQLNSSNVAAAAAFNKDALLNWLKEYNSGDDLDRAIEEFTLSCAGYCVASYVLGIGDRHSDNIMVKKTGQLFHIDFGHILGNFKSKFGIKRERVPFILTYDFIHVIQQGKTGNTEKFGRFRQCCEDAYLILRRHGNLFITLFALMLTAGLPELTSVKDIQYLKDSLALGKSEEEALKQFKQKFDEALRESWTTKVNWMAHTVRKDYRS

[8] = target: Phosphatidylinositol 4,5-bisphosphate 3-kinase catalytic subunit alpha isoform (Homo sapiens, UniProt P42336); experiment: Binding affinity to PI3Kalpha (unknown origin) assessed as dissociation constant
Phosphatidylinositol 4,5-bisphosphate 3-kinase catalytic subunit alpha isoform, sequence (P42336 whole entry, canonical isoform): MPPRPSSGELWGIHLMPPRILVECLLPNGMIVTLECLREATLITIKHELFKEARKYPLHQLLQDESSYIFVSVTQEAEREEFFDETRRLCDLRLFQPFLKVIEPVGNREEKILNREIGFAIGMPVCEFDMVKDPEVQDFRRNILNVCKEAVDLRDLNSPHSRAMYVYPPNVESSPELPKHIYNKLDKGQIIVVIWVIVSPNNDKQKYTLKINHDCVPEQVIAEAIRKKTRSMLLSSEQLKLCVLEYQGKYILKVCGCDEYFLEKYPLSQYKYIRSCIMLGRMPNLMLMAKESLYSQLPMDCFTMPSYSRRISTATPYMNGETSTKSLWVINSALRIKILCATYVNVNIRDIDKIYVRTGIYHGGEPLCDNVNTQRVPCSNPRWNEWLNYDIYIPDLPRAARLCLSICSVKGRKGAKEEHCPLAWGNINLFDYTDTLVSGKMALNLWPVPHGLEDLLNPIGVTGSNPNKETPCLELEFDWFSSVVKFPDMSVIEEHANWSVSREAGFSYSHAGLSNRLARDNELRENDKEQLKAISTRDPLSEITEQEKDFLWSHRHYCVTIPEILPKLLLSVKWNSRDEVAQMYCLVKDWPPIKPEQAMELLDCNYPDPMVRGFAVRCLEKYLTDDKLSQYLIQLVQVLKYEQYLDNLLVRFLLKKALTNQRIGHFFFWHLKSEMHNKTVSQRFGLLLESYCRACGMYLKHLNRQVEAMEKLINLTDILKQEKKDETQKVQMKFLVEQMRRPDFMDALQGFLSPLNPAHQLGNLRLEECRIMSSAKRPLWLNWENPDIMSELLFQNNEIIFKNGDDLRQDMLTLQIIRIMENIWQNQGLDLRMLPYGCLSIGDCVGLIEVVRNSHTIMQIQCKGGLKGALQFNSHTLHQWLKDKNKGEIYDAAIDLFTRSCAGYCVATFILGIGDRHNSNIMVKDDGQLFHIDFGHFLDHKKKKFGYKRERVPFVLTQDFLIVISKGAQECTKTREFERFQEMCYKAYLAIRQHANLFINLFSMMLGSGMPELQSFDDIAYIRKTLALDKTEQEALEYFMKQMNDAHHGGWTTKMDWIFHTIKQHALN

HBL = experiment: Antiproliferative activity against human HBL cells assessed as inhibition of cell growth; type: functional

SMILES: COc1cccc2cc(-c3nc([C@H]4CC[C@H](C(=O)O)CC4)n4ncnc(N)c34)[nH]c12 [OSI-027]
inhibition in vivo at 25 mg/kg (MDA-MB-231 [1]): 90%
inhibition in vivo at 65 mg/kg (MDA-MB-231 [2]): 100%

IC50 [3]: < 3 nM
IC50 [4]: < 3 nM
IC50 [5]: 9 nM
SMILES: CN1CCN([C@H]2CC[C@H](n3cc(-c4ccc(Oc5ccccc5)cc4)c4c(N)ncnc43)CC2)CC1

SMILES: CC(C)Oc1ccc(-c2nn([C@H](C)c3oc4ccc(F)cc4c(=O)c3-c3cccc(F)c3)c3ncnc(N)c23)cc1F
Kd [6]: > 1400 nM
Kd [7]: > 10 µM
Kd [8]: > 10 µM

SMILES: Nc1ncnc2c1c(-c1ccc(Oc3ccccc3)cc1)nn2[C@@H]1CCCN(C(=O)c2cn(CCOCCOCCOCCNc3cccc4c3C(=O)N(C3CCC(=O)NC3=O)C4=O)nn2)C1 (some centres undefined)
GI50 (HBL): 28 nM
